The data set can be described thus: Pharmacokinetic study, single intravenous infusion in cynomolgus monkeys. The conditions noted are these: both, cynomolgus monkey, in vivo. As for the experimental part: 18 cynomolgus monkeys (half female and half male) were weighed one day before administration, stratified based on the weight, and then randomly divided into 3 groups (3 females and 3 males/group): a low dose group (1 mg/kg), a medium dose group (3 mg/kg), and a high dose group (10 mg/kg). […] Blood was collected from the forelimb veins of cynomolgus monkeys in each group, and treated samples of the blood collected at 0 h before and 0.5 […], and 672 h after the administration were used as PK samples. After the blood collection at each time point was completed, serum was obtained by centrifugation for sample analysis.

On to `CC[C@@]1(O)C(=O)OCc2c1cc1n(c2=O)Cc2c-1nc1cc(F)c(C)c3c1c2[C@@H](NC(=O)C[C@H](C)O)CC3` [P-III-30], for which, under “3 mg/kg”, the AUC0-t is 1.07 ng·h/mL and the Cmax is recorded as 0.133 ng/mL. Besides, the AUC0-t (10 mg/kg) came to 44.5 ng·h/mL.

As a reminder, the Cmax is the highest concentration seen after dosing.

(Values after patent publication US20260224723A1, “ANTI-B7H3 ANTIBODY-DRUG CONJUGATE AND USE THEREOF” (Duality Biologics (Suzhou) Co., Ltd., priority 2022, published 2026).)
